System: healthy adult female subjects
Assay: Phase 1 dose escalation, subcutaneous: vaginal photoplethysmography (vaginal pulse amplitude)
Format: in vivo, human
Experimental: In a double-blind, placebo-controlled, single dose, dose escalation Phase 1 study to determine the maximum tolerated dose in healthy adult female subjects, doses of from 0.3 to 5.0 mg (0.3, 1.0, 3.0 and 5.0 mg) of bremelanotide were administered by subcutaneous injection. However, this study specifically excluded women with a diagnosis of FSD, and thus could not determine an effective dose for treatment of FSD. The study did employ a measure of pharmacodynamic effect, defined as an increase of sexual arousal response in the presence of visual sexual stimulation as measured by vaginal blood flow with vaginal photoplethysmography (using a Geer gauge device), which measures vaginal pulse amplitude.

Compound: CCCC[C@H](NC(C)=O)C(=O)N[C@H]1CC(=O)NCCCC[C@@H](C(=O)O)NC(=O)[C@H](Cc2c[nH]c3ccccc23)NC(=O)[C@H](CCCNC(=N)N)NC(=O)[C@@H](Cc2ccccc2)NC(=O)[C@H](Cc2c[nH]cn2)NC1=O [bremelanotide, Ac-Nle-cyclo(-Asp-His-D-Phe-Arg-Trp-Lys)-OH]
- Pharmacodynamic effect (vaginal pulse amplitude with visual sexual stimulation) (0.3 or 1.0 mg SC, compared to placebo or baseline): no apparent pharmacodynamic effect
- Pharmacodynamic effect (vaginal pulse amplitude with visual sexual stimulation) (3 and 5 mg SC): statistically significant pharmacodynamic effect
- Subcutaneous dose at which a pharmacodynamics effect was seen (normal female volunteers): ≥ 3 mg
